Measurements taken from publication PMC8403742, “A single point mutation causes one-way alteration of pheromone receptor function in two Heliothis species” (iScience, 2021).
pEC50: −log10 of the molar value. Entries after “also recorded” stand apart in the source; their conditions may differ.

How the values were obtained:
HsubOR14/HsubOrco = HsubOR14/HsubOrco co-expressed in Xenopus oocytes, two-electrode voltage clamp; details: 10^-4 M solution
Protocol: (§1) Stock solutions (1 M) were dissolved in dimethyl sulfoxide (DMSO) and stored at −20°C. Before experiments, the stock solution was diluted in 1 × Ringer's buffer (96 mM NaCl, 2 mM KCl, 5 mM MgCl2, 0.8 mM CaCl2 and 5 mM HEPES, pH 7.6) to working concentration of 10^−4 M. 1 × Ringer's buffer containing 0.1% DMSO was used as a negative control.
(§2) The vectors contain the full ORF of all ORs were linearized to prepare the templates and the cRNA was synthesized with mMESSAGE mMACHINE SP6 (Ambion). Stage V to VII oocytes were treated with 2 mg/mL collagenase I (GIBCO, Carlsbad, CA) in 1 × Ca^2+-free washing buffer (96 mM NaCl, 2 mM KCl, 5 mM MgCl2 and 5 mM HEPES, pH 7.6) for about 1 h at room temperature. After being cultured overnight at 18°C, oocytes were then microinjected with 27.6 ng of Orco cRNA and 27.6 ng of ORs cRNA. Oocytes microinjected with 55.2 ng of Orco were used as negative controls. Injected oocytes were incubated for 4–7 days at 18°C in 1 × washing buffer (96 mM NaCl, 2 mM KCl, 5 mM MgCl2, 0.8 mM CaCl2 and 5 mM HEPES, pH 7.6) supplemented with 5% dialysed horse serum, 50 mg/mL tetracycline, 100 mg/mL streptomycin and 550 mg/mL sodium pyruvate.
(§3) Whole-cell currents were recorded with a two-electrode voltage clamp from the injected oocytes. Odorant-induced currents were recorded with an OC-725C oocyte clamp (Warner Instruments, Hamden, CT, USA) at a holding potential of −80 mV. […]

HsubOR16/HsubOrco = HsubOR16/HsubOrco co-expressed in Xenopus oocytes, two-electrode voltage clamp; details: 10^-4 M solution
Protocol: as §1, §2, §3

[1] = test system: HvirOR6 mutants VM5, VM7, VM10, VM11, VM13, VM14, VM17, VM21, VM22, and VM30; format: cell-based, Heliothis virescens; details: 10^-4 M, 10 mutants VM5, VM7, VM10, VM11, VM13, VM14, VM17, VM21, VM22, VM30
[2] = test system: HvirOR6 mutants VM8, VM26, VM27, and VM28; format: cell-based, Heliothis virescens; details: 10^-4 M
HsubOR6/HsubOrco = HsubOR6/HsubOrco (Heliothis subflexa, UniProt A0A8E4MSQ8); experiment: HsubOR6/HsubOrco co-expressed in Xenopus oocytes, two-electrode voltage clamp; format: cell-based; details: for response of receptor to compound: 10^-4 M solution
[3] = molecular target: VM321 (HvirOR6 L321V, VM6) (Heliothis virescens, UniProt Q8MMI0, L321V); experiment: cell-based; format: cell-based; details: for response of mutant receptor to compound: 10^-4 M, HvirOR6 L321V (VM6/VM321)
[4] = test system: chimeric OR6s (VSS, SVV, VVS, and SSV); format: cell-based, Heliothis virescens, Heliothis subflexa
HvirOR6/HvirOrco = HvirOR6/HvirOrco (Heliothis virescens, UniProt Q8MMI0); experiment: HvirOR6/HvirOrco co-expressed in Xenopus oocytes, two-electrode voltage clamp; format: cell-based; details: for response of receptor to compound / response (inward current): HvirOR6/HvirOrco Xenopus oocytes; for response (inward current): concentration of 10^-4 M
[5] = test system: HvirOR6 mutants VM1, VM2, VM3, VM4, VM12, VM15, VM16, VM20, VM23, VM24, VM29, and VM31; format: cell-based, Heliothis virescens; details: 10^-4 M, 12 mutants VM1, VM2, VM3, VM4, VM12, VM15, VM16, VM20, VM23, VM24, VM29, VM31
[6] = test system: HvirOR6 mutants VM9 and VM25; format: cell-based, Heliothis virescens; details: 10^-4 M
SM321 (HsubOR6 V321L) = SM321 (HsubOR6 V321L) (Heliothis subflexa, UniProt A0A8E4MSQ8, V314L); experiment: cell-based; format: cell-based; details: for response of mutant receptor compared with HsubOR6: 10^-4 M, HsubOR6 V321L (SM321)
HvirOR6 mutant VM19 = format: cell-based, Heliothis virescens; details: 10^-4 M
HvirOR6 mutant VM18 = format: cell-based, Heliothis virescens; details: 10^-4 M
HsubOR13/HsubOrco = HsubOR13/HsubOrco co-expressed in Xenopus oocytes, two-electrode voltage clamp; details: 10^-4 M solution
Protocol: as §1, §2, §3

Sequence of HsubOR6/HsubOrco (A0A8E4MSQ8 1-424): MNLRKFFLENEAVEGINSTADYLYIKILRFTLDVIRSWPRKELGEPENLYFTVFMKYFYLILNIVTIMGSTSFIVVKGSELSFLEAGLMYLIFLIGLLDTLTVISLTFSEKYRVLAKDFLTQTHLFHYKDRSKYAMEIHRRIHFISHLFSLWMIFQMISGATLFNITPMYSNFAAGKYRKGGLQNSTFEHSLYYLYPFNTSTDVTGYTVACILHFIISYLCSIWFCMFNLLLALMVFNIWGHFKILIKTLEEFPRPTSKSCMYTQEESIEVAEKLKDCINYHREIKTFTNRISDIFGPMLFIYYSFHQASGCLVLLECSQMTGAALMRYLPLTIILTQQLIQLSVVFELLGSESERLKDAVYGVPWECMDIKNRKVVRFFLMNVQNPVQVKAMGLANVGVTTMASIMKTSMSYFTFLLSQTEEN

For `CCCC/C=C\CCCCCCCCCCOC(C)=O` [Z11-16:OAc, (Z)-11-hexadecenyl acetate], which “response of receptor to compound” value (HsubOR14/HsubOrco) is on record?
The value was “specifically activated”.

How did the “response of receptor to compound” value (HsubOR16/HsubOrco) turn out when `CCCC/C=C\CCCCCCCCCCO` [Z11-16:OH, (Z)-11-hexadecen-1-ol] was run?
Its value is “responded robustly”.

With `CCCC/C=C\CCCCCCCC=O` [Z9-14:Ald, (Z)-9-tetradecenal] as the compound, how does the “response of HvirOR6 mutants compared with HvirOR6” value [1] read?
Its value is “did not have altered responses”.

What about the “response of HvirOR6 mutants compared with HvirOR6” value [2] of the same compound?
Its value is “increased responses”.

What about the “response of receptor to compound” value (HsubOR6/HsubOrco) of the same compound?
Its value is “little if any response; also recorded: lost its ability to recognize”.

What about the “response of mutant receptor to compound” value [3] of the same compound?
The value was “lost its response; also recorded: lost its ability to bind”.

And the “response of chimeric OR6s compared with original sequences” value [4]?
The value was “decreased significantly”.

What about the “response to Z9-14:Ald relative to that to Z9-16:Ald” value (HvirOR6/HvirOrco; 10^-4 M, HvirOR6) of the same compound?
Its value is “about 8.23 times”.

What about the “response of receptor to compound” value (HvirOR6/HvirOrco) of the same compound?
Its value is “responsive”.

What about the “response (inward current)” value (HvirOR6/HvirOrco) of the same compound?
The value was 1,541.96 nA.

And the “response of HvirOR6 mutants compared with HvirOR6” value [5]?
Its value is “significant decrease in the response”.

What about the “response of HvirOR6 mutants compared with HvirOR6” value [6] of the same compound?
Its value is “decreased responses”.

And the “response of mutant receptor compared with HsubOR6” value (SM321 (HsubOR6 V321L))?
The value was “remained unchanged”.

Which “response of HvirOR6 mutants compared with HvirOR6” value [1] does the source give for `CCCCCC/C=C\CCCCCCCC=O` [Z9-16:Ald, (Z)-9-hexadecenal] here?
Its value is “did not have altered responses”.

What about the “response of receptor to compound” value (HsubOR6/HsubOrco) of the same compound?
Its value is “responded; also recorded: specifically responsive”.

And the “average response (inward current)” value (HsubOR6/HsubOrco; concentration of 10^-4 M)?
Its value is 184.04 nA.

What about the pEC50 (HsubOR6/HsubOrco; holding potential -80 mV, read-out: EC50 (dose-response of inward current)) of the same compound?
Its pEC50 is 4.33.

And the pEC50 [3]?
Its pEC50 is 4.39.

What about the “response of mutant receptor to compound” value [3] of the same compound?
The value was “retaining the response”.

And the “response of chimeric OR6s compared with original sequences” value [4]?
Its value is “decreased significantly”.

What about the pEC50 (HvirOR6/HvirOrco) of the same compound?
The pEC50 was 4.61.

And the “response of receptor to compound” value (HvirOR6/HvirOrco)?
The value was “responsive”.

And the “response (inward current)” value (HvirOR6/HvirOrco)?
The value was 187.44 nA.

And the “response of HvirOR6 mutant compared with HvirOR6” value (HvirOR6 mutant VM19)?
The value was “decreased response”.

And the “response of HvirOR6 mutant compared with HvirOR6” value (HvirOR6 mutant VM18)?
Its value is “increased response”.

What about the “response of HvirOR6 mutants compared with HvirOR6” value [5] of the same compound?
Its value is “significant decrease in the response”.

What about the pEC50 (SM321 (HsubOR6 V321L)) of the same compound?
Its pEC50 is 4.69.

And the “response of mutant receptor compared with HsubOR6” value (SM321 (HsubOR6 V321L))?
The value was “increased”.

How did the “response of receptor to compound” value (HsubOR13/HsubOrco) turn out when `CCCC/C=C\CCCCCCCCCC=O` [Z11-16:Ald, (Z)-11-hexadecenal] was run?
The value was “specifically responded”.
